In publication PMC5607274, “An iterative compound screening contest method for identifying target protein inhibitors using the tyrosine-protein kinase Yes” (Scientific Reports, 2017):

Target: T1, human recombinant Yes [a.a. 2–543 (end)] (Homo sapiens, UniProt P07947)
T1 construct: human recombinant Yes [a.a; 2–543 (end)]; purchased BPS Bioscience 40488
Experiment: ADP-Glo kinase assay, inhibition rates of Yes phosphorylation activity (first and second screening)
Type: biochemical
Conditions: 10 μmol L−1 compound; for First screening IR (inhibition rate): mean of n = 4 wells; for Second screening IR (inhibition rate): dissolved from fresh powder, n = 4
Procedure, shortened: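 ADP-Glo luminescence measured inhibition of human recombinant Yes (a.a. 2–543) phosphorylation activity. In the first screen, each compound ran in 4 wells and inhibition rates were averaged. The second screen retested hits as compounds dissolved from fresh powder.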

T1 sequence (P07947 2-543): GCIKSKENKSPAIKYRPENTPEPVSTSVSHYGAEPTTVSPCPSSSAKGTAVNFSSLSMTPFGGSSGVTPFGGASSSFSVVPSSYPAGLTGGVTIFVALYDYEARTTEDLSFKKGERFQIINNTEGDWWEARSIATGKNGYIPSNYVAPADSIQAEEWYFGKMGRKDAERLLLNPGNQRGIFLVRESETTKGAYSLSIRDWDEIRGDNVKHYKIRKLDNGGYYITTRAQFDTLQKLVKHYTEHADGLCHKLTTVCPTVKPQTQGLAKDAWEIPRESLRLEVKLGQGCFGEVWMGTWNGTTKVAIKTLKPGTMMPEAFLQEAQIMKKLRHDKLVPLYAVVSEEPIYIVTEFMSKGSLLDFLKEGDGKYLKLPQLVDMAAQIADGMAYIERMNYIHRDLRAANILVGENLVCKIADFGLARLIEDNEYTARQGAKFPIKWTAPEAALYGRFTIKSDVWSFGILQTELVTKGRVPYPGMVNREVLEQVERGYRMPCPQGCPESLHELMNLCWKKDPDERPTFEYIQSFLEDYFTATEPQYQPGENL

Compound | First screening IR (inhibition rate) [%] | Second screening IR (inhibition rate) [%]
Cc1ccc(Nc2nccc(C(F)(F)F)n2)cc1S(=O)(=O)N(C)C [Compound Z318799754] | 6 | 
Cc1nc(/C=C2/C(=O)Nc3ccc(Cl)cc32)cs1 [Compound Z44304809] | 13 | 
CC(SCc1nc(N)nc(N(C)C)n1)C(=O)Nc1ccc(F)cc1F (centres unmarked) [Compound Z197454476] | -5 | 
Cc1nn(CCc2nn[nH]n2)c2nc(-c3ccccc3)cc(C(F)(F)F)c12 [Compound Z55874741] | 1 | 
Cc1cc(F)ccc1NC(=O)C(C)Oc1cccc(Cl)c1 (centres unmarked) [Compound Z29827650] | 11 | 
CCN(C1CCS(=O)(=O)C1)S(=O)(=O)c1ccc(C)cc1 (centres unmarked) [Compound Z45467092] | 9 | 
O=C(OCc1nc(-c2cccs2)no1)c1c(F)cccc1F [Compound Z51088101] | 8 | 
CN1CCC(N(C)c2ccc(NC(=O)c3c(O)cc(F)cc3F)cc2)CC1 [Compound Z910632940] | 6 | 
O=C(NS(=O)(=O)Cc1ccc(Cl)nc1)C1CCc2cn[nH]c2C1 (centres unmarked) [Compound Z1291253354] | -13 | 
Cc1nn(CCC(=O)O)c2nc(-c3cccs3)cc(C(=O)O)c12 [Compound Z295455358] | -2 | 
Cc1occc1S(=O)(=O)CCCS(=O)(=O)C(C)C [Compound Z1822689954] | -9 | 
Cc1cc(C)n(-c2ccc(Cl)c(C(=O)OCC(=O)c3ccc(F)c(F)c3)n2)n1 [Compound Z15431588] | 20 | 
Cc1nn(CCC#N)c2nc(-c3cccnc3)cc(C(F)(F)F)c12 [Compound Z55426831] | -2 | 
CN(C)C(=O)Sc1ccc(NC(=O)COc2ccc(F)cc2)cc1 [Compound Z1126778415] | -17 | 
FC(F)(F)c1ccnc(Nc2ccc(N3CCCCCC3)cc2)n1 [Compound Z642699568] | -21 | 
CC(SCc1nc(N)nc(N(C)C)n1)C(=O)Nc1cc(F)ccc1F (centres unmarked) [Compound Z197454478] | 15 | 

Compound | First screening IR (inhibition rate) [%] | Second screening IR (inhibition rate) [%]
Cc1ccc(-c2cc(C(=O)O)c3c(C)nn(-c4ccc(C)cc4C)c3n2)cc1 [Compound Z55871149] | 40 | 
O=C(O)/C=C/c1ccc(NC(=O)CSC(c2ccccc2)c2ccccc2)cc1 [Compound Z224289160] | -8 | 
CC(Nc1ccc(Oc2cccc3cccnc23)cc1)C(N)=O (centres unmarked) [Compound Z1651676792] | 6 | 
O=c1cc(-c2ccccc2)c2cc(Cl)c(OCCO)cc2o1 [Compound Z335913836] | 15 | 
CC1CC(C)CN(S(=O)(=O)c2cc(S(C)(=O)=O)ccc2Cl)C1 (centres unmarked) [Compound Z355129038] | 12 | 
NC(=O)c1ccc(COc2ccc(I)cc2)c(F)c1 [Compound Z816021628] | -2 | 
O=C(N/N=C/c1ccco1)c1cc(-c2ccc(Br)s2)[nH]n1 [Compound Z57393573] | -9 | 
Clc1ccc(C2=NN/C(=N/c3ccccn3)SC2)s1 [Compound Z1446648080] | 8 | 
Cc1cccc(C)c1OC1CCN(c2ncnc3c2cnn3C)CC1 [Compound Z646031500] | 8 | 
Cl.O=C(NCCC1CCCNC1)c1c(F)cccc1Br (centres unmarked) [Compound Z1457134316] | -2 | 
COC(=O)c1sc2ncc(/C=C/C(=O)c3cccnc3)cc2c1C [Compound Z871886494] | 66 | 12
O=S1(=O)CCC(N2CCN(Cc3cc(Cl)cc(C4CCCCC4)c3O)CC2)C1 (centres unmarked) [Compound Z827167912] | 7 | 
CC(C)(C)OC(=O)N1CC(NC(=O)c2cc3c(F)cc(Br)cc3[nH]2)C1 [Compound Z1231909655] | -12 | 
Cc1cccc(/C=N/Nc2ncnc3sc(C)c(C)c23)c1 [Compound Z49890788] | 3 | 
CC(NC(=O)C1=NN(c2ccc(F)cc2)C(C(N)=O)C1)c1ccc(F)cc1F (centres unmarked) [Compound Z295508576] | 6 | 
Cc1ccc(NC(=O)C(C)Sc2ncnc3sc4c(c23)CCC4)cc1 (centres unmarked) [Compound Z20227630] | -9 | 

Second part, the molecule after the results:

First screening IR (inhibition rate) [%] | Second screening IR (inhibition rate) [%] | Compound
5 |  | CCOC(=O)c1c(-c2ccc(OC)c(OC)c2)csc1NC(=O)CN1CCN(c2cccc(OC)c2)CC1 [Compound Z46357060]
6 |  | CC(C)c1cccc(NS(=O)(=O)c2ccc(-n3ncc(Cl)c(Cl)c3=O)cc2)c1 [Compound Z286115224]
4 |  | Clc1ccc2nc(NC3=NCN(CCN4CCOCC4)CN3)nc(-c3ccccc3)c2c1 [Compound Z57440306]
-5 |  | CN(C)C(=O)Cn1cc(NC(=O)c2ccc3cc[nH]c3c2)cn1 [Compound Z1067269008]
-8 |  | O=C(c1cccnc1N1CCCC1)N1CCN(C(=O)C2COc3ccccc3O2)CC1 (centres unmarked) [Compound Z88468962]
-2 |  | O=C(Cc1cccc(F)c1)NNC(=O)Cn1c(COc2ccc(Cl)cc2)nc2ccccc21 [Compound Z31930719]
-4 |  | O=C(Nc1ccc(N2CCOCC2)cc1N1CCOCC1)c1ccc(N2C(=O)CCC2=O)cc1 [Compound Z28028679]
2 |  | Cc1cccc(-c2nn(-c3ccccc3)cc2C(=O)N(C)CC(=O)Nc2ccc(N3CCOCC3)cc2)c1 [Compound Z26593505]
21 |  | Cc1cc(C)c(C)c(S(=O)(=O)Nc2ccccc2C(=O)N2CCN(c3cccc(C(F)(F)F)c3)CC2)c1C [Compound Z56576419]
-15 |  | Cc1cc(NCC(O)COc2ccc(F)cc2)nc2ccccc12 (centres unmarked) [Compound Z815806580]
-4 |  | Cc1cccc(C(C)C)c1NC(=O)CN1CCCCC1Cc1ccccc1 (centres unmarked) [Compound Z991917352]
57 |  | CC(C)(C)NC(=O)CN1CCN(C(=O)CSc2nc3ccccc3c(=O)n2-c2ccccc2)CC1 [Compound Z65695011]
-17 |  | Cc1cc(Br)ccc1NC(=O)Cn1nc(C)c(S(=O)(=O)N2CCC(C)CC2)c1C [Compound Z107308838]
-8 |  | CON(C)C(=O)c1cc(-c2ccccc2)nc2c1cnn2Cc1ccncc1 [Compound Z109300154]
25 |  | Cl.Oc1ccc(O)c(-c2cc(-c3ccccc3Cl)c3cc(Cl)ccc3n2)c1 [Compound Z134829678]
6 |  | CC(C)Cn1c(=O)[nH]c(=O)c2c(C(=O)NCc3ccc(CN4CCOCC4)cc3)cc(C3CC3)nc21 [Compound Z338592020]
-1 |  | CC(C)C(NC(=O)c1ccc(CNC(N)=O)cc1)c1ccccc1 (centres unmarked) [Compound Z96018682]
10 |  | Cl.Oc1ccc(-c2cc(-c3ccccc3Cl)c3cc(Cl)ccc3n2)cc1 [Compound Z48951729]
2 |  | CCC(NC(=O)c1cc2c(cc1Cl)N1CCCCCC1=NS2(=O)=O)c1ccc(C)cc1 (centres unmarked) [Compound Z28877665]

First screening IR (inhibition rate) [%] | Second screening IR (inhibition rate) [%] | Compound
-4 |  | CSc1ncccc1C(=O)OCC(=O)Nc1nc2ccccc2s1 [Compound Z56896575]
46 |  | COc1cc(NC(=O)c2ccccc2)c(OC)cc1NC(=O)COc1ccc(-c2nnco2)cc1 [Compound Z62746884]
33 |  | CCN(CC)Cc1ccc(CNC(=O)c2ccccc2SCc2cscn2)cc1 [Compound Z283831144]
13 |  | COc1ccccc1-c1cc(NC(=O)c2ccc(Cn3cncn3)cc2)n[nH]1 [Compound Z927972178]
16 |  | O=C(CN(Cc1ccccc1)S(=O)(=O)c1ccc(Cl)cc1)N1CCN(c2ccccn2)CC1 [Compound Z26735553]
3 |  | O=C(NCCCN1CCCC1=O)c1cc(-c2ccccc2)nc2c1cnn2Cc1cccc(F)c1 [Compound Z116386688]
-12 |  | CN(CC(=O)N1CCc2ccccc2C1)Cc1nc2ccccc2c(=O)[nH]1 [Compound Z46302902]
51 |  | CCCn1c(NC(=O)c2ccc3c(c2)NC(=O)C(C)S3)nc2ccccc21 (centres unmarked) [Compound Z29076459]
5 |  | N#C/C(=C(/O)COC(=O)CCc1ccccc1)c1nc2ccccc2[nH]1 [Compound Z18264769]
6 |  | Cc1cc(F)cc2[nH]c(C(=O)NC3CN(C(=O)OC(C)(C)C)CC3C#N)cc12 (centres unmarked) [Compound Z1671371372]
14 |  | CCOc1ccc(NC(=O)c2ccccc2NC(=O)CN2CCOCC2)cc1 [Compound Z46179735]
27 | -4 | CN(C)c1ccc(/C=c2/s/c(=C(/C#N)C(=O)NCCN3CCOCC3)n(Cc3ccco3)c2=O)cc1 [Compound Z48025165]
47 |  | Cn1c(=O)[nH]c(=O)c2c1nc(N1CCN(Cc3ccccc3)CC1)n2CCSc1nnnn1-c1ccccc1 [Compound Z239092730]
44 |  | Cc1ccn2c(/C=C/C(=O)c3cccc(N4CCOC4=O)c3)cnc2c1 [Compound Z1263913876]
10 |  | Cl.Fc1ccc(-c2nc3ccc(Cl)cc3c(-c3ccccc3)c2CCCl)cc1 [Compound Z48950878]
-6 |  | Cc1ccc(-c2nn3c(=O)c4c(C)c(C)sc4nc3c3ccccc23)cc1 [Compound Z55164044]
2 |  | CCOC(=O)c1c(Nc2nc3ccccc3nc2N2CCN(Cc3ccccc3)CC2)sc(C)c1C [Compound Z56866112]
7 |  | COc1ccc(-n2nnc3c4c(c(Nc5ccc(C)cc5)cc32)C(=O)c2ccccc2C4=O)cc1 [Compound Z56857970]
